From patent US20160185797A1, “ALKYNYL ALCOHOLS AND METHODS OF USE” (Genentech, Inc., priority 2013, published 2016)
Like-named read-outs stand apart in the source and are kept apart here.

Assays:
[1] = molecular target: T1, nuclear factor-kappa B (NF-kB)-inducing kinase (NIK) (Homo sapiens, UniProt Q99558); experiment: NIK enzyme inhibition assay (Transcreener ADP fluorescence polarization, NIK ADP-FP); type: biochemical
T1 construct: made in house; host or cells: baculovirus-infected insect cells
T1 sequence (Q99558 whole entry): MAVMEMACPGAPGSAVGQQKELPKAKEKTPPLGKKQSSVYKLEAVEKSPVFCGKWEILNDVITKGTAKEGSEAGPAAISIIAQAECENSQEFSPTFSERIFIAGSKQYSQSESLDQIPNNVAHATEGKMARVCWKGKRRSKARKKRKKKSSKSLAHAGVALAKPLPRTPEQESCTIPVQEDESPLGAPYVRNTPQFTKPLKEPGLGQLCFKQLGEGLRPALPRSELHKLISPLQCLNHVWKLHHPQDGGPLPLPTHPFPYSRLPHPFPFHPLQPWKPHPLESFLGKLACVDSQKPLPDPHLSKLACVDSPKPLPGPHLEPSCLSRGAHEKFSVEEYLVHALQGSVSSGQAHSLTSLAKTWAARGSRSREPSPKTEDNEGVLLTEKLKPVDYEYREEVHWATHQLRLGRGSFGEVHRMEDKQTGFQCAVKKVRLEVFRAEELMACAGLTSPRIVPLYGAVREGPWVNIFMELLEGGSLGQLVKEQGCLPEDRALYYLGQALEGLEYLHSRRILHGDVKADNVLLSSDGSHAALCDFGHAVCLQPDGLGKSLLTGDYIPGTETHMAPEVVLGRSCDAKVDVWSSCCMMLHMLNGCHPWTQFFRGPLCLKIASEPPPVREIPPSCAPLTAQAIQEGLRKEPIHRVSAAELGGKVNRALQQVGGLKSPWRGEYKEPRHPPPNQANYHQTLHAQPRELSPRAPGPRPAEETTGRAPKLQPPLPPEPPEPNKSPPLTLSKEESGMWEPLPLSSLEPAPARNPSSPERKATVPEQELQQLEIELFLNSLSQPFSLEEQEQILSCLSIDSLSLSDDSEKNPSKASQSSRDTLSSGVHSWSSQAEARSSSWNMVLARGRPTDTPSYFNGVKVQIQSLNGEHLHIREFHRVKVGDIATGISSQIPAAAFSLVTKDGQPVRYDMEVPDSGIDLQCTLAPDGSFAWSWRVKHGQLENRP

[2] = test system: REL-A (p65) nuclear translocation in HeLa cells; experiment: REL-A (p65) nuclear translocation assay in HeLa cells, TNF-α stimulated (classical NF-kB signaling), high content imaging; type: cell-based; conditions: compound 4.5 h, then 10 ng/mL TNF-α for 30 minutes, read-out: REL-A HeLa Transloc Assay (IC50)
Procedure, shortened: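 HeLa cells in medium with 10% fetal bovine serum were exposed to compounds (0.2% DMSO final) for 4.5 hours, then stimulated with 10 ng/mL TNF-α for 30 minutes. After fixation in 4% paraformaldehyde and permeabilization with 0.1% Triton X-100, cells were stained with 400 ng/mL anti-REL-A (p65) antibody, an Alexa488 secondary and DRAQ5. Opera imaging quantified the nuclear-to-cytoplasmic signal ratio to give IC50.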

[3] = test system: p52 (NF-kB2) nuclear translocation in HeLa cells; experiment: p52 (NF-kB2) nuclear translocation assay in HeLa cells, anti-lymphotoxin beta receptor antibody stimulated (non-classical NF-kB signaling), high content imaging; type: cell-based; conditions: 100 ng/mL anti-lymphotoxin beta receptor antibody for 5 hours, read-out: p52 HeLa Transloc Assay (IC50)
Procedure, shortened: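 HeLa cells in 10% FBS medium were treated with compound (0.2% DMSO final) and stimulated with 100 ng/mL anti-lymphotoxin beta receptor antibody for 5 h. Fixed cells were immunostained for p52 and imaged with DRAQ5 nuclear stain. Translocation is the nuclear to cytoplasmic intensity ratio, […].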

Compound: CN1CC[C@@](O)(C#Cc2cccc(-c3nc4c(c(C(N)=O)n3)CCCC4)c2)C1=O [Example 34, 2-[3-[2-[(3R)-3-hydroxy-1-methyl-2-oxo-pyrrolidin-3-yl]ethynyl]phenyl]-5,6,7,8-tetrahydroquinazoline-4-carboxamide]
- Ki [1]: 1.42 nM
- IC50 ([2]; Homo sapiens, HeLa): > 20000 nM
- IC50 ([3]; Homo sapiens): 138 nM

Compound: COc1cc(C(N)=O)nc(-c2cc(F)cc(C#C[C@]3(O)CCN(C)C3=O)c2)c1 [Example 171, 6-[3-fluoro-5-[2-[(3R)-3-hydroxy-1-methyl-2-oxo-pyrrolidin-3-yl]ethynyl]phenyl]-4-methoxy-pyridine-2-carboxamide]
- Ki [1]: 0.24 nM
- IC50 ([2]; Homo sapiens, HeLa): > 2000 nM
- IC50 ([3]; Homo sapiens): 132 nM

Compound: CN1CC[C@@](O)(C#Cc2cccc(-c3nc(C(N)=O)cn4c(C(F)(F)F)cnc34)c2)C1=O [Example 113, 8-[3-[2-[(3R)-3-hydroxy-1-methyl-2-oxo-pyrrolidin-3-yl]ethynyl]phenyl]-3-(trifluoromethyl)imidazo [1,2-a]pyrazine-6-carboxamide]
- Ki [1]: 2.12 nM
- IC50 ([2]; Homo sapiens, HeLa): ≥ 2000 nM
- IC50 ([3]; Homo sapiens): 212 nM

Compound: CN1CC[C@@](O)(C#Cc2cccc(-c3nc(C(N)=O)c(Cl)cc3F)c2)C1=O [Example 60, 3-chloro-5-fluoro-6-[3-[2-[(3R)-3-hydroxy-1-methyl-2-oxo-pyrrolidin-3-yl]ethynyl]phenyl] pyridine-2-carboxamide]
- Ki [1]: 5.61 nM
- IC50 ([2]; Homo sapiens, HeLa): ≥ 20000 nM
- IC50 ([3]; Homo sapiens): 1390 nM

Compound: CN1CC[C@@](O)(C#Cc2cccc(-c3nc(OC4COC4)c(N)c(C(N)=O)n3)c2)C1=O [Example 106, 5-amino-2-[3-[2-[(3R)-3-hydroxy-1-methyl-2-oxo-pyrrolidin-3-yl]ethynyl]phenyl]-6-(oxetan-3-yloxy)pyrimidine-4-carboxamide]
- Ki [1]: 0.25 nM
- IC50 ([2]; Homo sapiens, HeLa): ≥ 2000 nM
- IC50 ([3]; Homo sapiens): 70 nM

Compound: CN1CC[C@@](O)(C#Cc2cccc(-c3cc(-n4cccn4)cc(C(N)=O)n3)c2)C1=O [Example 52, 6-[3-[2-[(3R)-3-hydroxy-1-methyl-2-oxo-pyrrolidin-3-yl]ethynyl]phenyl]-4-pyrazol-1-yl-pyridine-2-carboxamide]
- Ki [1]: 0.13 nM
- IC50 ([2]; Homo sapiens, HeLa): ≥ 20000 nM
- IC50 ([3]; Homo sapiens): 26 nM

Compound: CN1CC[C@@](O)(C#Cc2cccc(-c3cc(OC4COC4)cc(C(N)=O)n3)c2)C1=O [Example 122, 6-[3-[2-[(3R)-3-hydroxy-1-methyl-2-oxo-pyrrolidin-3-yl]ethynyl]phenyl]-4-(oxetan-3-yloxy) pyridine-2-carboxamide]
- Ki [1]: 0.81 nM
- IC50 ([2]; Homo sapiens, HeLa): ≥ 2000 nM
- IC50 ([3]; Homo sapiens): 226 nM

Compound: CN1CC[C@@](O)(C#Cc2cccc(-c3nc(C(N)=O)c4cccc(F)c4n3)c2)C1=O [Example 41, 8-fluoro-2-[3-[2-[(3R)-3-hydroxy-1-methyl-2-oxo-pyrrolidin-3-yl]ethynyl]phenyl]quinazoline-4-carboxamide]
- Ki [1]: 0.22 nM
- IC50 ([2]; Homo sapiens, HeLa): > 20000 nM
- IC50 ([3]; Homo sapiens): 26.4 nM

Compound: COc1cc(-c2cccc(C#C[C@]3(O)CCN(C)C3=O)c2)nc(C(N)=O)c1C [Example 169, 6-[3-[2-[(3R)-3-hydroxy-1-methyl-2-oxo-pyrrolidin-3-yl]ethynyl]phenyl]-4-methoxy-3-methyl-pyridine-2-carboxamide]
- Ki [1]: 0.55 nM
- IC50 ([2]; Homo sapiens, HeLa): > 2000 nM
- IC50 ([3]; Homo sapiens): 196 nM

Compound: CON(C)c1cc(C(N)=O)nc(-c2cccc(C#C[C@]3(O)CCN(C)C3=O)c2)n1 [Example 19, 2-[3-[2-[(3R)-3-hydroxy-1-methyl-2-oxo-pyrrolidin-3-yl]ethynyl]phenyl]-6-[methoxy (methyl)amino]pyrimidine-4-carboxamide]
- Ki [1]: 1.1 nM
- IC50 ([2]; Homo sapiens, HeLa): > 20000 nM
- IC50 ([3]; Homo sapiens): 45.5 nM

Compound: CN1CC[C@@](O)(C#Cc2cccc(-c3nc(C(N)=O)cc(N4CC[C@@H]4c4cccs4)n3)c2)C1=O [Example 26, 2-[3-[2-[(3R)-3-hydroxy-1-methyl-2-oxo-pyrrolidin-3-yl]ethynyl]phenyl]-6-[(2R)-2-(2-thienyl)azetidin-1-yl] pyrimidine-4-carboxamide]
- Ki [1]: 4.85 nM
- IC50 ([2]; Homo sapiens, HeLa): > 20000 nM
- IC50 ([3]; Homo sapiens): 110 nM

Compound: CN1CCC[C@@](O)(C#Cc2cccc(-c3nc(C(N)=O)c(N)cc3F)c2)C1=O [Example 131, 3-amino-5-fluoro-6-[3-[2-[(3R)-3-hydroxy-1-methyl-2-oxo-3-piperidyl]ethynyl]phenyl]pyridine-2-carboxamide]
- Ki [1]: 1.06 nM
- IC50 ([2]; Homo sapiens, HeLa): ≥ 2000 nM
- IC50 ([3]; Homo sapiens): 142 nM

Compound: Cc1cc(C#C[C@]2(O)CCN(C)C2=O)cc(-c2nccc(C(N)=O)n2)c1 [Example 94, 2-[3-[2-[(3R)-3-hydroxy-1-methyl-2-oxo-pyrrolidin-3-yl]ethynyl]-5-methyl-phenyl]pyrimidine-4-carboxamide]
- Ki [1]: 1.41 nM
- IC50 ([2]; Homo sapiens, HeLa): ≥ 20000 nM
- IC50 ([3]; Homo sapiens): 175 nM

Compound: CN1CC[C@@](O)(C#Cc2cccc(-c3nc(C(N)=O)ccc3F)c2)C1=O [Example 15, 5-fluoro-6-[3-[2-[(3R)-3-hydroxy-1-methyl-2-oxo-pyrrolidin-3-yl]ethynyl]phenyl] pyridine-2-carboxamide]
- Ki [1]: 1.21 nM
- IC50 ([2]; Homo sapiens, HeLa): > 20000 nM
- IC50 ([3]; Homo sapiens): 630 nM

Compound: CCn1nccc1-c1cc(C(N)=O)nc(-c2cccc(C#C[C@]3(O)CCN(C)C3=O)c2)n1 [Example 67, 6-(2-ethylpyrazol-3-yl)-2-[3-[2-[(3R)-3-hydroxy-1-methyl-2-oxo-pyrrolidin-3-yl]ethynyl]phenyl] pyrimidine-4-carboxamide]
- Ki ([1]; purified NIK 0.5 nM, 10 μM ATP, pH 7.2, Ki from Morrison's quadratic equation): 0.08 nM
- IC50 [2]: ≥ 20000 nM
- IC50 [3]: 21.8 nM

Compound: CN1CC[C@@](O)(C#Cc2cccc(-c3nc(C(N)=O)nc4ccsc34)c2)C1=O [Example 36, 4-[3-[2-[(3R)-3-hydroxy-1-methyl-2-oxo-pyrrolidin-3-yl]ethynyl]phenyl]thieno[3,2-d]pyrimidine-2-carboxamide]
- Ki [1]: 0.184 nM
- IC50 ([2]; Homo sapiens, HeLa): > 20000 nM
- IC50 ([3]; Homo sapiens): 314 nM

Compound: CN1CC[C@@](O)(C#Cc2cccc(-c3nc(C(N)=O)c(N)c(-n4cccn4)n3)c2)C1=O [Example 72, 5-amino-2-[3-[2-[(3R)-3-hydroxy-1-methyl-2-oxo-pyrrolidin-3-yl]ethynyl]phenyl]-6-pyrazol-1-yl-pyrimidine-4-carboxamide]
- Ki [1]: 0.05 nM
- IC50 ([2]; Homo sapiens, HeLa): 6320 nM
- IC50 ([3]; Homo sapiens): 6.43 nM

Compound: CN1CC[C@@](O)(C#Cc2cccc(-c3cc(-n4cncn4)cc(C(N)=O)n3)c2)C1=O [Example 51, 6-[3-[2-[(3R)-3-hydroxy-1-methyl-2-oxo-pyrrolidin-3-yl]ethynyl]phenyl]-4-(1,2,4-triazol-1-yl)pyridine-2-carboxamide]
- Ki [1]: 0.23 nM
- IC50 ([2]; Homo sapiens, HeLa): ≥ 20000 nM
- IC50 ([3]; Homo sapiens): 129 nM

Compound: CN1CC[C@@](O)(C#Cc2ccc(F)c(-c3cnc(N)c(C(N)=O)n3)c2)C1=O [Example 117, 3-amino-6-[2-fluoro-5-[2-[(3R)-3-hydroxy-1-methyl-2-oxo-pyrrolidin-3-yl]ethynyl]phenyl] pyrazine-2-carboxamide]
- Ki [1]: 0.05 nM
- IC50 ([2]; Homo sapiens, HeLa): ≥ 20000 nM
- IC50 ([3]; Homo sapiens): 12.5 nM

Compound: Cc1ccnn1-c1cc(C(N)=O)nc(-c2ccc(F)c(C#C[C@]3(O)CCN(C)C3=O)c2)n1 [Example 111, 2-[4-fluoro-3-[2-[(3R)-3-hydroxy-1-methyl-2-oxo-pyrrolidin-3-yl]ethynyl]phenyl]-6-(5-methylpyrazol-1-yl)pyrimidine-4-carboxamide]
- Ki [1]: 0.37 nM
- IC50 ([2]; Homo sapiens, HeLa): ≥ 2000 nM
- IC50 ([3]; Homo sapiens): 75.8 nM
